{
  "source": "patent US11174232B2",
  "about": "“Substituted heterocyclyl derivatives as CDK inhibitors” (Aurigene Discovery Technologies Limited, priority 2015, dated 2021)",
  "target": "CDK7/CycH/MNAT1 (Homo sapiens (Human), UniProt P50613)",
  "sequence (P50613 whole entry)": "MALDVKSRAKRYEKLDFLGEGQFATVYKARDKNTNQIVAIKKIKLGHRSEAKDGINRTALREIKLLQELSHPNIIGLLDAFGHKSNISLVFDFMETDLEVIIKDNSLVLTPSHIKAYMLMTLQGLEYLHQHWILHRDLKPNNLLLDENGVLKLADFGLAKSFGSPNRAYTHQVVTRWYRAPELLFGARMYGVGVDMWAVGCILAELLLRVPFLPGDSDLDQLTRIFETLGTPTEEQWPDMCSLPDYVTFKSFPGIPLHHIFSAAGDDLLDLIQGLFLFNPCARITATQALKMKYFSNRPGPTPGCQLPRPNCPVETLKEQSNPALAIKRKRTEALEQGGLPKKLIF",
  "sequence (P51946 whole entry partner)": "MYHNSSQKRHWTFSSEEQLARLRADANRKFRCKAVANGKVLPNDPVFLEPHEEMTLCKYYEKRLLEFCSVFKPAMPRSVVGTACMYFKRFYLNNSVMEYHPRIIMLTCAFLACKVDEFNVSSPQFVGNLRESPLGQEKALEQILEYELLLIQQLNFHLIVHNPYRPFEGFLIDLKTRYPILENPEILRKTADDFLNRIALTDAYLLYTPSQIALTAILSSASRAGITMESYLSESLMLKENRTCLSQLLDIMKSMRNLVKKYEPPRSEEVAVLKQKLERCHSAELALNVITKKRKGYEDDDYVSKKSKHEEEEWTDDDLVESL",
  "sequence (P51948 whole entry partner)": "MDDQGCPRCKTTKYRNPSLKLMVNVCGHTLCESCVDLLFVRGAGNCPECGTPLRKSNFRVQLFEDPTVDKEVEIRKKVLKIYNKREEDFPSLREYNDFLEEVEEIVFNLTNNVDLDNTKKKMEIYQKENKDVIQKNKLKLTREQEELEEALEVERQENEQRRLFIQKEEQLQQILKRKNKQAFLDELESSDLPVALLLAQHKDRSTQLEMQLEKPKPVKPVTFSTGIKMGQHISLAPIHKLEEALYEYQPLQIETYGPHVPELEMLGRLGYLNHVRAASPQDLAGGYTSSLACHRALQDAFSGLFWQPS",
  "assay": "Biochemical Assay for CDK7 (TR-FRET kinase assay)",
  "conditions": "60 min pre-incubation with kinase, 1 mM ATP; for inhibition at 10 µM: 10 μM compound",
  "outline": "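TR-FRET with 5 nM CDK7/CycH/MNAT1, compound pre-incubated 60 min at room temperature, then 100 nM ULight-MBP and 1 mM ATP for 60 min; stopped with EDTA, Eu anti-phospho-MBP read at 665/615 nm. 1% DMSO; IC50 from sigmoidal fit. Time-dependence tested with 20, 60, 180 min pre-incubation.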",
  "data": [
    {"compound": "C=CC(=O)NCc1ccc(-c2cccc(C(C)C(=O)Nc3cc(C4CC4)[nH]n3)c2)cn1", "note": "(stereo not drawn) [Compound 74, N-((5-(3-(1-((5-cyclopropyl-1H-pyrazol-3-yl)amino)-1-oxopropan-2-yl)phenyl)pyridin-2-yl)methyl)acrylamide]", "values": [
      {"measurement": "inhibition at 10 µM", "result": 79, "unit": "%"},
      {"measurement": "IC50", "result": "> 0.1", "unit": "µM"}
    ]},
    {"compound": "C=CC(=O)Nc1ccc(-c2cccc(C(C)C(=O)Nc3cc(C4CC4)[nH]n3)c2)c(C)c1", "note": "(stereo not drawn) [Compound 75, N-(3′-(1-((5-cyclopropyl-1H-pyrazol-3-yl)amino)-1-oxopropan-2-yl)-2-methyl-[1,1′-biphenyl]-4-yl)acrylamide]", "values": [
      {"measurement": "inhibition at 10 µM", "result": 78, "unit": "%"},
      {"measurement": "IC50", "result": "> 0.1", "unit": "µM"}
    ]},
    {"compound": "C=CC(=O)N1CCc2cc(-c3cccc(C(C)C(=O)Nc4cc(C5CC5)[nH]n4)c3)ccc21", "note": "(stereo not drawn) [Compound 76, 2-(3-(1-acryloylindolin-5-yl)phenyl)-N-(5-cyclopropyl-1H-pyrazol-3-yl)propanamide]", "values": [
      {"measurement": "inhibition at 10 µM", "result": 98, "unit": "%"},
      {"measurement": "IC50", "result": "< 0.025", "unit": "µM"}
    ]},
    {"compound": "COC[C@@H]1C[C@H](F)CN1C/C=C/C(=O)Nc1ccc(-c2cccc(C(C)C(=O)Nc3cc(C4CC4)[nH]n3)c2)cn1", "note": "(stereo partly drawn) [Compound 77, (E)-N-(5-(3-(1-((5-cyclopropyl-1H-pyrazol-3-yl)amino)-1-oxopropan-2-yl)phenyl)pyridin-2-yl)-4-((2S,4S)-4-fluoro-2-(methoxymethyl)pyrrolidin-1-yl)but-2-enamide]", "values": [
      {"measurement": "inhibition at 10 µM", "result": 98, "unit": "%"},
      {"measurement": "IC50", "result": "0.025 to 0.1", "unit": "µM"}
    ]},
    {"compound": "CC(C(=O)Nc1cc(C2CC2)[nH]n1)c1cccc(-c2ccc(NC(=O)/C=C/CN3CCC(C#N)C3)nc2)c1", "note": "(stereo not drawn) [Compound 78, (E)-4-(3-cyanopyrrolidin-1-yl)-N-(5-(3-(1-((5-cyclopropyl-1H-pyrazol-3-yl)amino)-1-oxopropan-2-yl)phenyl)pyridin-2-yl)but-2-enamide]", "values": [
      {"measurement": "inhibition at 10 µM", "result": 100, "unit": "%"},
      {"measurement": "IC50", "result": "0.025 to 0.1", "unit": "µM"}
    ]},
    {"compound": "C=CC(=O)Nc1cncc(-c2cccc(C(C)C(=O)Nc3cc(C4CC4)[nH]n3)c2)n1", "note": "(stereo not drawn) [Compound 79, N-(6-(3-(1-((5-cyclopropyl-1H-pyrazol-3-yl)amino)-1-oxopropan-2-yl)phenyl)pyrazin-2-yl)acrylamide]", "values": [
      {"measurement": "inhibition at 10 µM", "result": 102, "unit": "%"},
      {"measurement": "IC50", "result": "< 0.025", "unit": "µM"}
    ]},
    {"compound": "CC(C(=O)Nc1cc(C2CC2)[nH]n1)c1cccc(-c2ccc(NC(=O)/C=C/CN3CC[C@H](F)C3)c(F)c2)c1", "note": "(stereo partly drawn) [Compound 80, (E)-N-(3′-(1-((5-cyclopropyl-1H-pyrazol-3-yl)amino)-1-oxopropan-2-yl)-3-fluoro-[1,1′-biphenyl]-4-yl)-4-((S)-3-fluoropyrrolidin-1-yl)but-2-enamide]", "values": [
      {"measurement": "inhibition at 10 µM", "result": 95, "unit": "%"},
      {"measurement": "IC50", "result": "0.025 to 0.1", "unit": "µM"}
    ]},
    {"compound": "COC(=O)[C@@H]1CCCN1C/C=C/C(=O)Nc1ccc(-c2cccc(C(C)C(=O)Nc3cc(C4CC4)[nH]n3)c2)cn1", "note": "(stereo partly drawn) [Compound 81, methyl ((E)-4-((5-(3-(1-((5-cyclopropyl-1H-pyrazol-3-yl)amino)-1-oxopropan-2-yl)phenyl)pyridin-2-yl)amino)-4-oxobut-2-en-1-yl)-L-prolinate]", "values": [
      {"measurement": "inhibition at 10 µM", "result": 100, "unit": "%"},
      {"measurement": "IC50", "result": "0.025 to 0.1", "unit": "µM"}
    ]},
    {"compound": "CC(C(=O)Nc1cc(C2CC2)[nH]n1)c1cccc(-c2ccc(NC(=O)/C=C/CN3CCC[C@H]3CC#N)nc2)c1", "note": "(stereo partly drawn) [Compound 82, (E)-4-((S)-2-(cyanomethyl)pyrrolidin-1-yl)-N-(5-(3-(1-((5-cyclopropyl-1H-pyrazol-3-yl)amino)-1-oxopropan-2-yl)phenyl)pyridin-2-yl)but-2-enamide]", "values": [
      {"measurement": "inhibition at 10 µM", "result": 99, "unit": "%"},
      {"measurement": "IC50", "result": "0.025 to 0.1", "unit": "µM"}
    ]},
    {"compound": "C=CC(=O)Nc1ccc(C(=O)Nc2cccc(Nc3cc(CC)[nH]n3)c2)cc1", "note": "[Compound 83, 4-acrylamido-N-(3-((5-ethyl-1H-pyrazol-3-yl)amino)phenyl)benzamide]", "values": [
      {"measurement": "inhibition at 10 µM", "result": 62, "unit": "%"},
      {"measurement": "IC50", "result": "> 0.1", "unit": "µM"}
    ]},
    {"compound": "CC(C(=O)Nc1cc(C2CC2)[nH]n1)c1cccc(C2=CCN(C(=O)/C=C/CN(C)C)CC2)c1", "note": "(stereo not drawn) [Compound 84, (E)-N-(5-cyclopropyl-1H-pyrazol-3-yl)-2-(3-(1-(4-(dimethylamino)but-2-enoyl)-1,2,3,6-tetrahydropyridin-4-yl)phenyl)propanamide]", "values": [
      {"measurement": "inhibition at 10 µM", "result": 88, "unit": "%"},
      {"measurement": "IC50", "result": "> 0.1", "unit": "µM"}
    ]},
    {"compound": "CC(C(=O)Nc1cc(C2CC2)[nH]n1)c1cccc(C2CCN(C(=O)/C=C/CN(C)C)CC2)c1", "note": "(stereo not drawn) [Compound 85, (E)-N-(5-cyclopropyl-1H-pyrazol-3-yl)-2-(3-(1-(4-(dimethylamino)but-2-enoyl)piperidin-4-yl)phenyl)propanamide]", "values": [
      {"measurement": "inhibition at 10 µM", "result": 74, "unit": "%"},
      {"measurement": "IC50", "result": "> 0.1", "unit": "µM"}
    ]},
    {"compound": "C=CC(=O)Nc1ccc(-c2cccc(CC(=O)Nc3cc(C)[nH]n3)c2)cc1", "note": "[Compound 86, N-(3′-(2-((5-Methyl-1H-pyrazol-3-yl)amino)-2-oxoethyl)-[1,1′-biphenyl]-4-yl)acrylamide]", "values": [
      {"measurement": "inhibition at 10 µM", "result": 48, "unit": "%"}
    ]},
    {"compound": "C=CC(=O)Nc1ccc(-c2cccc(C(C)C(=O)Nc3cc(CC)[nH]n3)c2)cc1", "note": "(stereo not drawn) [Compound 87, N-(3′-(1-((5-ethyl-1H-pyrazol-3-yl)amino)-1-oxopropan-2-yl)-[1,1′-biphenyl]-4-yl)acrylamide]", "values": [
      {"measurement": "inhibition at 10 µM", "result": 89, "unit": "%"},
      {"measurement": "IC50", "result": "> 0.1", "unit": "µM"}
    ]},
    {"compound": "C=CC(=O)Nc1ccc(-c2cccc(C(C)C(=O)Nc3cc(C(C)(C)C)[nH]n3)c2)cc1", "note": "(stereo not drawn) [Compound 88, N-(3′-(1-((5-(tert-butyl)-1H-pyrazol-3-yl)amino)-1-oxopropan-2-yl)-[1,1′-biphenyl]-4-yl)acrylamide]", "values": [
      {"measurement": "inhibition at 10 µM", "result": 62, "unit": "%"},
      {"measurement": "IC50", "result": "> 0.1", "unit": "µM"}
    ]},
    {"compound": "CN(C)C/C=C/C(=O)Nc1ccc(C(=O)Nc2cccc(Nc3n[nH]c4ccccc34)c2)cc1", "note": "[Compound 89, (E)-N-(3-((1H-indazol-3-yl)amino)phenyl)-4-(4-(dimethylamino)but-2-enamido)benzamide]", "values": [
      {"measurement": "inhibition at 10 µM", "result": 45, "unit": "%"}
    ]},
    {"compound": "C=CC(=O)Nc1ccc(-c2cccc(C(C)C(=O)Nc3n[nH]c4ccccc34)c2)cc1", "note": "(stereo not drawn) [Compound 90, N-(3′-(1-((1H-indazol-3-yl)amino)-1-oxopropan-2-yl)-[1,1′-biphenyl]-4-yl)acrylamide]", "values": [
      {"measurement": "inhibition at 10 µM", "result": 83, "unit": "%"},
      {"measurement": "IC50", "result": "> 0.1", "unit": "µM"}
    ]},
    {"compound": "CC(C(=O)Nc1n[nH]c2ccccc12)c1cccc(-c2ccc(NC(=O)/C=C/CN(C)C)cc2)c1", "note": "(stereo not drawn) [Compound 91, (E)-N-(3′-(1-((1H-indazol-3-yl)amino)-1-oxopropan-2-yl)-[1,1′-biphenyl]-4-yl)-4-(dimethylamino)but-2-enamide]", "values": [
      {"measurement": "inhibition at 10 µM", "result": 84, "unit": "%"},
      {"measurement": "IC50", "result": "> 0.1", "unit": "µM"}
    ]},
    {"compound": "CC(C(=O)Nc1cc(C2CC2)[nH]n1)c1cccc(-c2cncc(NC(=O)/C=C/CN3CCCC3)n2)c1", "note": "(stereo not drawn) [Compound 92, (E)-N-(6-(3-(1-((5-cyclopropyl-1H-pyrazol-3-yl)amino)-1-oxopropan-2-yl)phenyl)pyrazin-2-yl)-4-(pyrrolidin-1-yl)but-2-enamide]", "values": [
      {"measurement": "inhibition at 10 µM", "result": 86, "unit": "%"},
      {"measurement": "IC50", "result": "0.025 to 0.1", "unit": "µM"}
    ]},
    {"compound": "C[C@H](C(=O)Nc1cc(C2CC2)[nH]n1)c1cccc(-c2ccc(NC(=O)/C=C/CN3CCOCC3)nc2)c1", "note": "[Compound 93, (S,E)-N-(5-(3-(1-((5-cyclopropyl-1H-pyrazol-3-yl)amino)-1-oxopropan-2-yl)phenyl)pyridin-2-yl)-4-morpholinobut-2-enamide]", "values": [
      {"measurement": "inhibition at 10 µM", "result": 100, "unit": "%"},
      {"measurement": "IC50", "result": "< 0.025", "unit": "µM"}
    ]},
    {"compound": "O=C(/C=C/CN1CCCC1)Nc1ccc(-c2cccc(C3(C(=O)Nc4cc(C5CC5)[nH]n4)CC3)c2)cn1", "note": "[Compound 94, (E)-N-(5-cyclopropyl-1H-pyrazol-3-yl)-1-(3-(6-(4-(pyrrolidin-1-yl)but-2-enamido)pyridin-3-yl)phenyl)cyclopropane-1-carboxamide]", "values": [
      {"measurement": "inhibition at 10 µM", "result": 85, "unit": "%"},
      {"measurement": "IC50", "result": "> 0.1", "unit": "µM"}
    ]},
    {"compound": "CC(C)(C(=O)Nc1cc(C2CC2)[nH]n1)c1cccc(-c2ccc(NC(=O)/C=C/CN3CCCC3)nc2)c1", "note": "[Compound 95, (E)-N-(5-(3-(1-((5-cyclopropyl-1H-pyrazol-3-yl)amino)-2-methyl-1-oxopropan-2-yl)phenyl)pyridin-2-yl)-4-(pyrrolidin-1-yl)but-2-enamide]", "values": [
      {"measurement": "inhibition at 10 µM", "result": 71, "unit": "%"},
      {"measurement": "IC50", "result": "> 0.1", "unit": "µM"}
    ]}
  ]
}
